Source: ChEMBL document CHEMBL1126309, “Aliphatic propargylamines: potent, selective, irreversible monoamine oxidase B inhibitors” (J Med Chem, 1992)

What was measured:
[1] = target: T1, Amine oxidase [flavin-containing] B (Rattus norvegicus, UniProt P19643); assay: Inhibition of Monoamine oxidase B of rat liver mitochondrial membranes; format: cell membranes, Membrane
T1 sequence (P19643 whole entry): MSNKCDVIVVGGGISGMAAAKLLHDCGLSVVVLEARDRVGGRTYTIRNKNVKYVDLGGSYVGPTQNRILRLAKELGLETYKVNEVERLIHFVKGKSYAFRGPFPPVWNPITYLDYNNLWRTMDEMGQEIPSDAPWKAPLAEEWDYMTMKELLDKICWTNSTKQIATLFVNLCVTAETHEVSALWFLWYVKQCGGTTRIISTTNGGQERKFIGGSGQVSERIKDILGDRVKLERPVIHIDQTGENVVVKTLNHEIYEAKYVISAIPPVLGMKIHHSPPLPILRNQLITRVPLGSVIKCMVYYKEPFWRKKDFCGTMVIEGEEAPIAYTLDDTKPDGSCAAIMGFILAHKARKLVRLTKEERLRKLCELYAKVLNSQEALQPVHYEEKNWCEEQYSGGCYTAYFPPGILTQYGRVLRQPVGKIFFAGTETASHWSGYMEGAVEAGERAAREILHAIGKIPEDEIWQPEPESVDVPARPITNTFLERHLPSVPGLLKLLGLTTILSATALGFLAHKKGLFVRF

[2] = target: T2, Amine oxidase [flavin-containing] A (Rattus norvegicus, UniProt P21396); assay: Inhibition of Monoamine oxidase A of rat liver mitochondrial membranes; format: cell membranes, Membrane
T2 sequence (P21396 whole entry): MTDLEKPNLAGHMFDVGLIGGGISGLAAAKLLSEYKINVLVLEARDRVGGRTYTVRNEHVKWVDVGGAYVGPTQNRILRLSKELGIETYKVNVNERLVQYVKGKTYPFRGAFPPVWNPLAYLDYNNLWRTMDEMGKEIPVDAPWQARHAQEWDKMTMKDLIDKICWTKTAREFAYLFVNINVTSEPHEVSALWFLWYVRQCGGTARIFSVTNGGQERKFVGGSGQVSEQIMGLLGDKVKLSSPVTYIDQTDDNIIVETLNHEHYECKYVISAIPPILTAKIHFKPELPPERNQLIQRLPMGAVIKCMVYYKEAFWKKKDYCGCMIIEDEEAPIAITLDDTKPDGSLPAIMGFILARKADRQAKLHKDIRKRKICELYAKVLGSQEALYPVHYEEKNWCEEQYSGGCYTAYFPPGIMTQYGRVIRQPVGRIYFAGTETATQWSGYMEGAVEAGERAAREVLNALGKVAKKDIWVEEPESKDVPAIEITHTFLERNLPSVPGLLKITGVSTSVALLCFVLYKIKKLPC

Mus musculus [3] = assay: MAO activities in the mouse brain after oral administration of compound towards 5-HT (5 x 10e-4 M) substrate; format: functional
Mus musculus [4] = assay: MAO activities in the mouse brain after oral administration of compound towards PE (1.9 x 10e-5 M) substrate; format: functional
Mus musculus [5] = assay: MAO activities in the mouse brain after intraperitoneal administration of compound towards 5-HT (5 x 10e-4 M) substrate; format: functional; conditions: ip, read-out: ID50 (the source's name)
Mus musculus [6] = assay: MAO activities in the mouse brain after intraperitoneal administration of compound towards PE (1.9 x 10e-5 M) substrate; format: functional; conditions: ip, read-out: ID50 (the source's name)
Rattus norvegicus = assay: MAO activity evaluated in dissected forebrain of rat after 2 hr of administration; format: functional
Mus musculus [7] = assay: Compound was evaluated for MAO-A activity after 1 day of chronic peritoneal administration in mouse fore brain at dose of 0.2 mg/kg; format: functional
Mus musculus [8] = assay: Compound was evaluated for MAO-B activity after 9 days of chronic peritoneal administration in mouse fore brain at dose of 0.05 mg/kg; format: functional
Mus musculus [9] = assay: Compound was evaluated for MAO-A activity after 9 day of chronic peritoneal administration in mouse fore brain at dose of 0.2 mg/kg; format: functional
Mus musculus [10] = assay: Compound was evaluated for MAO-B activity after 9 day of chronic peritoneal administration in mouse fore brain at dose of 0.2 mg/kg; format: functional
Mus musculus [11] = assay: Compound was evaluated for MAO-B activity after 20 day of chronic peritoneal administration in mouse fore brain at dose of 0.2 mg/kg; format: functional
Mus musculus [12] = assay: Compound was evaluated for MAO-B activity after 1 day of chronic peritoneal administration in mouse fore brain at dose of 0.05 mg/kg; format: functional
Mus musculus [13] = assay: Compound was evaluated for MAO-A activity after 20 days of chronic peritoneal administration in mouse fore brain at dose of 0.05 mg/kg; format: functional
Mus musculus [14] = assay: Compound was evaluated for MAO-A activity after 1 day of chronic peritoneal administration in mouse fore brain at dose of 0.05 mg/kg; format: functional
Mus musculus [15] = assay: Compound was evaluated for MAO-B activity after 1 day of chronic peritoneal administration in mouse fore brain at dose of 0.2 mg/kg; format: functional
Mus musculus [16] = assay: Compound was evaluated for MAO-A activity after 9 days of chronic peritoneal administration in mouse fore brain at dose of 0.05 mg/kg; format: functional
Mus musculus [17] = assay: Compound was evaluated for MAO-B activity after 20 days of chronic peritoneal administration in mouse fore brain at dose of 0.05 mg/kg; format: functional
Mus musculus [18] = assay: Compound was evaluated for MAO-A activity after 20 day of chronic peritoneal administration in mouse fore brain at dose of 0.2 mg/kg; format: functional
Monoamine oxidase [19] = target: T3, Monoamine oxidase (Rattus norvegicus, UniProt P19643+P21396); format: protein assay
T3 sequence (P19643 whole entry): T1 sequence (P19643 whole entry)
T3 sequence (P21396 whole entry): T2 sequence (P21396 whole entry)

Mus musculus [20] = assay: Compound was evaluated for MAO-A activity after 1 day of chronic peritoneal administration in mouse fore brain at dose of 0.25 mg/kg; format: functional
Mus musculus [21] = assay: Compound was evaluated for MAO-A activity after 13 days of chronic peritoneal administration in mouse fore brain at dose of 0.25 mg/kg; format: functional
Mus musculus [22] = assay: Compound was evaluated for MAO-B activity after 1 day of chronic peritoneal administration in mouse fore brain at dose of 0.25 mg/kg; format: functional
Mus musculus [23] = assay: Compound was evaluated for MAO-B activity after 13 days of chronic peritoneal administration in mouse fore brain at dose of 0.25 mg/kg; format: functional
Monoamine oxidase [24] = target: T3, Monoamine oxidase; assay: Compound was evaluated for the inhibition of deamination of dopamine (DA) by Monoamine oxidase at 5 x 10e-4 M; format: protein assay
Mus musculus [25] = assay: Compound was evaluated for MAO-A activity after 10 days of chronic peritoneal administration in mouse fore brain at dose of 2 mg/kg; format: functional
Mus musculus [26] = assay: Compound was evaluated for MAO-B activity after 10 days of chronic peritoneal administration in mouse fore brain at dose of 2 mg/kg; format: functional
Mus musculus [27] = assay: Compound was evaluated for MAO-A activity after 21 days of chronic peritoneal administration in mouse fore brain at dose of 2 mg/kg; format: functional
Mus musculus [28] = assay: Compound was evaluated for MAO-B activity after 21 days of chronic peritoneal administration in mouse fore brain at dose of 2 mg/kg; format: functional
Mus musculus [29] = assay: Compound was evaluated for MAO-B activity after 1 days of chronic peritoneal administration in mouse fore brain at dose of 2 mg/kg; format: functional
Mus musculus [30] = assay: Compound was evaluated for MAO-A activity after 1 days of chronic peritoneal administration in mouse fore brain at dose of 2 mg/kg; format: functional

Structure (SMILES)	IC50 [1]	IC50 [2]	Relative activity (Mus musculus [3]) [%]	Relative activity (Mus musculus [4]) [%]	ED50 (Mus musculus [5]) [µmol/kg]	ED50 (Mus musculus [6]) [µmol/kg]	ED50 (Rattus norvegicus) [µmol/kg]	other results
C#CCN(C)CCCCC(=O)OCC.O=C(O)C(=O)O	Not Active	Not Active						
C#CCN(C)CCC(=O)O.O=C(O)C(=O)O	Not Active	Not Active						
C#CCN(C)CCCCC.O=C(O)C(=O)O	370 nM	120000 nM	97	72	> 218	6.8		
C#CCN(C)CCCC.Cl	1400 nM	98000 nM	98	67	478	11.2	141	
C#CCN(C)C(C)CCCC.Cl (centres undefined)	82 nM	90000 nM			262	1.2	5.1	Relative activity (Mus musculus [7]): 103%; Relative activity (Mus musculus [8]): 41%; Relative activity (Mus musculus [9]): 103%; Relative activity (Mus musculus [10]): 35%; Relative activity (Mus musculus [11]): 27%; Relative activity (Mus musculus [12]): 55%; Relative activity (Mus musculus [13]): 76%; Relative activity (Mus musculus [14]): 104%; Relative activity (Mus musculus [15]): 36%; Relative activity (Mus musculus [16]): 95%; Relative activity (Mus musculus [17]): 37%; Relative activity (Mus musculus [18]): 81%
C#CCN(C)C(C)CCCCC.Cl (centres undefined)	210 nM	19000 nM	99	39	127	2.6		IC50 (Monoamine oxidase [19]): 320 nM
C#CCN(C)CCCCCCO.Cl	120000 nM	Not Active						
C#CCN(C)C(C)CCCCCCCCCC.Cl (centres undefined)	39 nM	1900 nM	107	64	223	15.5		IC50 (Monoamine oxidase [19]): 280 nM
C#CCN(C)C(C)CCCCCCCC.Cl (centres undefined)	180 nM	3900 nM	97	104	144	15	171	IC50 (Monoamine oxidase [19]): 210 nM; Relative activity (Mus musculus [20]): 85%; Relative activity (Mus musculus [21]): 79%; Relative activity (Mus musculus [22]): 94%; Relative activity (Mus musculus [23]): 70%
C#CCN(C)C(C)CCCCO.Cl (centres undefined)	130000 nM	Not Active						
C#CCNC.Cl	Not Active	Not Active						
C#CCN(C)C(CC)CC	180 nM	2400 nM			52.9	2.7		
C#CCN(C)C(C)C.Cl	19000 nM	Not Active						IC50 (Monoamine oxidase [24]): 28000 nM
C#CCN(C)C(C)CCC(=O)OCC.Cl (centres undefined)	Not Active	Not Active						
C#CCN(C)CCCCCCC.Cl		38000 nM	123	118	> 491	75.6		
C#CCN(C)C(C)CCC.Cl.O=C(O)C(=O)O (centres undefined)	180 nM	12000 nM	89	31	114	1.7	5.2	Relative activity (Mus musculus [25]): 49%; Relative activity (Mus musculus [26]): 19%; Relative activity (Mus musculus [27]): 31%; IC50 (Monoamine oxidase [19]): 5600 nM; Relative activity (Mus musculus [20]): 102%; Relative activity (Mus musculus [21]): 89%; Relative activity (Mus musculus [22]): 94%; Relative activity (Mus musculus [28]): 18%; Relative activity (Mus musculus [23]): 35%; Relative activity (Mus musculus [29]): 40%; Relative activity (Mus musculus [30]): 91%
C#CCN(C)C(C)CC (centres undefined)					69.7	4.2	31	
C#CCN(C)[C@H](C)Cc1ccccc1 [SELEGILINE]					143	2.3	26.3	
